Source: US10954287B2, “Ras binding peptides and methods of use” (Ra Pharmaceuticals, Inc., priority 2016, dated 2021)

test system: GMPPNP-loaded H-Ras or GTP-loaded K-Ras; experiment: Fluorescence polarization competition assay with TAMRA-labeled probe R4007; type: binding, human; conditions: 120 nM Ras, 30 nM probe R4007, 60 minutes at room temperature; read-out: Probe displacement (nM IC50)
Method: R4000 was evaluated for competition with a TAMRA labeled probe (R4007) based on peptide R4000. The assay was performed in 384-well black, non-binding plates (Greiner Bio-One, Monroe, N.C.). GMPPNP-loaded H-Ras or GTP-loaded K-Ras, diluted in FP assay buffer (20 mM Tris-HCl, pH 7.5, 50 mM NaCl, 5 mM MgCl2, 1 mM EDTA, 0.002% Triton-X-100) for a final concentration of 120 nM was incubated with 30 nM R4007 for 20 minutes at room temperature. R4000 was serially diluted, added to the assay and incubated for 60 minutes at room temperature. Fluorescence polarization was detected with a SpectraMax Paradigm plate reader (Molecular Devices, Sunnyvale, Calif.) using the Rhodamine FP detection cartridge (535 nm/595 nm). Data was analyzed using GraphPad Prism and Ki determined using One Site Ki Curve fitting model.
Peptides were evaluated for competition with R4007, a probe consisting of TAMRA-labeled R4000, using a fluorescence polarization (FP) competition assay. The assay was performed in 384-well black, non-binding plates (Greiner Bio-One, Monroe, N.C.). GMPPNP-loaded H-Ras or GTP- loaded K-Ras, diluted in FP assay buffer (20 mM Tris-HCl, pH 7.5, 50 mM NaCl, 5 mM MgCl2, 1 mM EDTA, 0.002% Triton-X-100) for a final concentration of 120 nM was incubated with 30 nM probe for 20 minutes at room temperature. Peptides were serially diluted, added to the assay and incubated for 60 minutes at room temperature. Fluorescence was detected with a SpectraMax Paradigm plate reader (Molecular Devices, Sunnyvale, Calif.) using the Rhodamine FP detection cartridge (535 nm/595 nm). Data was analyzed and Ki determined using a One Site Ki Curve fitting model. Percent inhibition for each data point was calculated relative to the maximal binding in test compound-free control wells (showing no probe displacement) and Ras-free control wells (showing no probe binding) and the half-maximal inhibitory concentration (IC50), based on probe displacement, was determined.

SMILES | IC50
CCC[C@H](NC(C)=O)C(=O)N[C@H]1CSCc2cccc(c2)CSC[C@@H](C(=O)NCC(=O)N[C@@H](CS)C(=O)N[C@@H](CCSC)C(=O)N[C@@H](CO)C(=O)N[C@@H](CS)C(=O)N[C@@H](CCCCN)C(=O)N[C@@H](CS)C(=O)N[C@H](C(=O)N[C@@H](CC(C)C)C(=O)N[C@@H](CO)C(N)=O)C(C)C)NC(=O)CN(C)C(=O)[C@H](Cc2ccc(F)cc2)N(C)C(=O)[C@H](Cc2ccc(O)cc2)NC(=O)[C@H](Cc2c[nH]c3ncccc23)NC(=O)[C@H](c2ccccc2)NC(=O)[C@H](C)N(C)C(=O)[C@H](Cc2c[nH]cn2)NC(=O)[C@H](CCCCN)NC(=O)[C@H](C(C)(C)C)NC(=O)[C@H](Cc2ccc(O)cc2)NC1=O (relative stereo) [Compound R4116, ACE-NVA-CYS*-TYR-TBG-LYS-HIS-NMA-PHG-7AW-TYR-MFF-SAR-CYS*-GLY-CYS-MET-SER-CYS-LYS-CYS-VAL-LEU-SER-NH2] | 35.7 nM
CCC[C@H](NC(C)=O)C(=O)N[C@H]1CSCc2cccc(c2)CSC[C@@H](C(N)=O)NC(=O)CN(C)C(=O)[C@H](Cc2ccc(F)cc2)N(C)C(=O)[C@H](Cc2ccc(O)cc2)NC(=O)[C@H](Cc2c[nH]c3ncccc23)NC(=O)[C@H](c2ccccc2)NC(=O)[C@H](C)N(C)C(=O)[C@H](Cc2c[nH]cn2)NC(=O)[C@H](CCCCN)NC(=O)[C@H](C(C)(C)C)NC(=O)[C@H](Cc2ccc(O)cc2)N(C)C1=O (relative stereo) [Compound R4117, ACE-NVA-CYS*-NMY-TBG-LYS-HIS-NMA-PHG-7AW-TYR-MFF-SAR-CYS*-NH2] | 48.3 nM
CCC[C@H](NC(C)=O)C(=O)N[C@H]1CSCc2cccc(c2)CSC[C@@H](C(N)=O)NC(=O)[C@H](CO)N(C)C(=O)[C@H](Cc2ccc(F)cc2)N(C)C(=O)[C@H](Cc2ccc(O)cc2)NC(=O)[C@H](Cc2c[nH]c3ncccc23)NC(=O)[C@H](c2ccccc2)NC(=O)[C@H](C)N(C)C(=O)[C@H](Cc2c[nH]cn2)NC(=O)[C@H](CCCCN)NC(=O)[C@H](C(C)(C)C)NC(=O)[C@H](Cc2ccc(O)cc2)NC1=O (relative stereo) [Compound R4118, ACE-NVA-CYS*-TYR-TBG-LYS-HIS-NMA-PHG-7AW-TYR-MFF-NMS-CYS*-NH2] | 51.5 nM
CCC[C@H](NC(C)=O)C(=O)N[C@H]1CSCc2cccc(c2)CSC[C@@H](C(=O)NCC(=O)N[C@@H](CS)C(=O)NCC(=O)N[C@H](C(=O)NCC(=O)N[C@H](C(=O)N[C@@H](CCSC)C(=O)O)[C@@H](C)CC)C(C)C)NC(=O)CN(C)C(=O)[C@H](Cc2ccc(F)cc2)N(C)C(=O)[C@H](Cc2ccc(O)cc2)NC(=O)[C@H](Cc2c[nH]c3ncccc23)NC(=O)[C@H](c2ccccc2)NC(=O)[C@H](C)N(C)C(=O)[C@H](Cc2c[nH]cn2)NC(=O)[C@H](CCCCN)NC(=O)[C@H](C(C)(C)C)NC(=O)[C@H](Cc2ccc(O)cc2)NC1=O (relative stereo) [Compound R4119, ACE-NVA-CYS*-TYR-TBG-LYS-HIS-NMA-PHG-7AW-TYR-MFF-SAR-CYS*-GLY-CYS-GLY-VAL-GLY-ILE-MET] | 64.4 nM
CCC[C@H](NC(C)=O)C(=O)N[C@H]1CSCc2cccc(c2)CSC[C@@H](C(=O)NCC(=O)NCC(=O)NCC(=O)N[C@@H](CS)C(=O)N[C@@H](C)C(=O)N[C@H](C(=O)N[C@@H](CC(C)C)C(N)=O)[C@@H](C)CC)NC(=O)CN(C)C(=O)[C@H](Cc2ccc(F)cc2)N(C)C(=O)[C@H](Cc2ccc(O)cc2)NC(=O)[C@H](Cc2c[nH]c3ncccc23)NC(=O)[C@H](c2ccccc2)NC(=O)[C@H](C)N(C)C(=O)[C@H](Cc2c[nH]cn2)NC(=O)[C@H](CCCCN)NC(=O)[C@H](C(C)(C)C)NC(=O)[C@H](Cc2ccc(O)cc2)NC1=O (relative stereo) [Compound R4120, ACE-NVA-CYS*-TYR-TBG-LYS-HIS-NMA-PHG-S7AW-TYR-MFF-AR-CYS*-GLY-GLY-GLY-CYS-ALA-ILE-LEU-NH2] | 65.7 nM
CCC[C@H](NC(C)=O)C(=O)N[C@H]1CSCc2cccc(c2)CSC[C@@H](C(N)=O)NC(=O)[C@H](C)N(C)C(=O)[C@H](Cc2ccc(F)cc2)N(C)C(=O)[C@H](Cc2ccc(O)cc2)NC(=O)[C@H](Cc2c[nH]c3ncccc23)NC(=O)[C@@H](c2ccccc2)NC(=O)[C@H](C)N(C)C(=O)[C@H](Cc2c[nH]cn2)NC(=O)[C@H](CCCCN)NC(=O)[C@H](C(C)(C)C)NC(=O)[C@H](Cc2ccc(O)cc2)NC1=O (relative stereo) [Compound R4121, ACE-NVA-CYS*-TYR-TBG-LYS-HIS-NMA-DPHG-7AW-TYR-MFF-NMA-CYS*-NH2] | 73 nM
C=CC(=O)NCCC[C@@H]1NC(=O)[C@H](C)NC(=O)[C@H](C(C)(C)C)NC(=O)[C@H](Cc2ccc(O)cc2)NC(=O)[C@@H](NC(=O)[C@H](CCC)NC(C)=O)CSCc2cccc(c2)CSC[C@@H](C(N)=O)NC(=O)CN(C)C(=O)[C@H](Cc2ccc(F)cc2)N(C)C(=O)[C@H](Cc2ccc(O)cc2)NC(=O)[C@H](Cc2c[nH]c3ncccc23)NC(=O)[C@H](c2ccccc2)NC(=O)[C@H](C)N(C)C1=O (relative stereo) [Compound R4122, ACE-NVA-CYS*-TYR-TBG-ALA-ORAC-NMA-PHG-7AW-TYR-MFF-SAR-CYS*-NH2] | 77.1 nM

Compounds with a lower IC50, results first:

IC50 | SMILES
34.1 nM | CCC[C@H](NC(C)=O)C(=O)N[C@H]1CSCc2cccc(c2)CSC[C@@H](C(N)=O)NC(=O)CN(C)C(=O)[C@H](Cc2ccc(F)cc2)N(C)C(=O)[C@H](Cc2ccc(O)cc2)NC(=O)[C@H](Cc2c[nH]c3ccccc23)NC(=O)[C@H](c2ccccc2)NC(=O)[C@H](C)N(C)C(=O)[C@H](Cc2c[nH]cn2)NC(=O)[C@H](CCCCN)NC(=O)[C@H](C(C)(C)C)NC(=O)[C@H](Cc2ccc(O)cc2)NC1=O (relative stereo) [Compound R4115, ACE-NVA-CYS*-TYR-TBG-LYS-HIS-NMA-PHG-TRP-TYR-MFF-SAR-CYS*-NH2]
32.7 nM | CCC[C@H](N)C(=O)N[C@H]1CSCc2cccc(c2)CSC[C@@H](C(=O)N[C@H](CO)C(=O)N[C@@H](CCCCN)C(=O)NCC(=O)N[C@@H](CS)C(=O)N[C@H](C(=O)N[C@H](C(=O)N[C@@H](CCSC)C(=O)O)[C@@H](C)CC)C(C)C)NC(=O)CN(C)C(=O)[C@H](Cc2ccc(F)cc2)N(C)C(=O)[C@H](Cc2ccc(O)cc2)NC(=O)[C@H](Cc2c[nH]c3ncccc23)NC(=O)[C@H](c2ccccc2)NC(=O)[C@H](C)N(C)C(=O)[C@H](Cc2c[nH]cn2)NC(=O)[C@H](CCCCN)NC(=O)[C@H](C(C)(C)C)NC(=O)[C@H](Cc2ccc(O)cc2)NC1=O (relative stereo) [Compound R4114, NVA-CYS*-TYR-TBG-LYS-HIS-NMA-PHG-7AW-TYR-MFF-SAR-CYS*-DSER-LYS-GLY-CYS-VAL-ILE-MET]
32.7 nM | CCC[C@H](N)C(=O)N[C@H]1CSCc2cccc(c2)CSC[C@@H](C(=O)N[C@H](CO)C(=O)N[C@@H](CCCCN)C(=O)NCC(=O)N[C@@H](CSSC(C)(C)C)C(=O)N[C@H](C(=O)N[C@H](C(=O)N[C@@H](CCSC)C(=O)O)[C@@H](C)CC)C(C)C)NC(=O)CN(C)C(=O)[C@H](Cc2ccc(F)cc2)N(C)C(=O)[C@H](Cc2ccc(O)cc2)NC(=O)[C@H](Cc2c[nH]c3ncccc23)NC(=O)[C@H](c2ccccc2)NC(=O)[C@H](C)N(C)C(=O)[C@H](Cc2c[nH]cn2)NC(=O)[C@H](CCCCN)NC(=O)[C@H](C(C)(C)C)NC(=O)[C@H](Cc2ccc(O)cc2)NC1=O (relative stereo) [Compound R4113, NVA-CYS*-TYR-TBG-LYS-HIS-NMA-PHG-7AW-TYR-MFF-SAR-CYS*-DSER-LYS-GLY-TDSPA-VAL-ILE-MET]
21.4 nM | CC(=O)N[C@H]1CSCc2cccc(c2)CSC[C@@H](C(N)=O)NC(=O)CN(C)C(=O)[C@H](Cc2ccc(F)cc2)N(C)C(=O)[C@H](Cc2ccc(O)cc2)NC(=O)[C@H](Cc2c[nH]c3ncccc23)NC(=O)[C@H](c2ccccc2)NC(=O)[C@H](C)N(C)C(=O)[C@H](Cc2c[nH]cn2)NC(=O)[C@H](CCCCN)NC(=O)[C@H](C(C)(C)C)NC(=O)[C@H](Cc2ccc(O)cc2)NC1=O (relative stereo) [Compound R4112, ACE-CYS*-TYR-TBG-LYS-HIS-NMA-PHG-7AW-TYR-MFF-SAR-CYS*-NH2]
20.8 nM | CCC[C@H](NC(C)=O)C(=O)N[C@H]1CSCc2cccc(c2)CSC[C@@H](C(=O)N[C@H](CO)C(=O)N[C@H](C)C(=O)N[C@@H](CCCCN)C(=O)N[C@@H](CSSC(C)(C)C)C(=O)N[C@H](C(=O)N[C@H](C(=O)N[C@@H](CCSC)C(=O)O)[C@@H](C)CC)C(C)C)NC(=O)CN(C)C(=O)[C@H](Cc2ccc(F)cc2)N(C)C(=O)[C@H](Cc2ccc(O)cc2)NC(=O)[C@H](Cc2c[nH]c3ncccc23)NC(=O)[C@H](c2ccccc2)NC(=O)[C@H](C)N(C)C(=O)[C@H](Cc2c[nH]cn2)NC(=O)[C@H](CCCCN)NC(=O)[C@H](C(C)(C)C)NC(=O)[C@H](Cc2ccc(O)cc2)NC1=O (relative stereo) [Compound R4111, ACE-NVA-CYS*-TYR-TBG-LYS-HIS-NMA-PHG-7AW-TYR-MFF-SAR-CYS*-DSER-DALA-LYS-TDSPA-VAL-ILE-MET]
